According to patent publication US9770467B2, “Compositions and methods for cancer immunotherapy” (THE JOHNS HOPKINS UNIVERSITY, priority 2012, dated 2017):

Legend:
primary human PBMCs = assay: IFN-α levels in primary human PBMCs by Cytometric Bead Array; assay type: cell-based; conditions: 50 μM, Effectene transfection, 24 hours; fifteen donors
Description: To determine the levels of IFN-α as a signature of CDN potency to activate innate immunity, 1×10^6 primary human PBMCs isolated from fifteen independent human donors were incubated in a 96 well U bottom plate for 30 min at 37° C., 5% CO2 with 50 μM of c-di-GMP (CDG), 1 μg/mL of Interferon Stimulatory DNA (ISD), or 4 μg/mL of Poly (I:C) utilizing Effectene transfection reagent (Qiagen) to transfer the molecules into the PBMC. ISD (Interferon Stimulating DNA) is TLR independent (Stetston, D. B. et. al. Immunity 24, 93-103, January 2006) and signals through cGAS, and is thus STING-dependent, while Poly (I:C) can signal through both TLR3 and RIG-I pathways, and are thus STING-independent. After 30 minutes, the cells were washed and replaced with RPMI media containing 10% FBS and incubated at 37° C., 5% CO2. After 24 hours incubation IFN-α levels were determined by Cytometric Bead Array (CBA, BD Biosciences) (FIG. 8).

STING = biological target: T1, STING (Mus musculus, UniProt Q3TBT3); conditions: cited from earlier work
T1 sequence (Q3TBT3 138-378 limits assumed): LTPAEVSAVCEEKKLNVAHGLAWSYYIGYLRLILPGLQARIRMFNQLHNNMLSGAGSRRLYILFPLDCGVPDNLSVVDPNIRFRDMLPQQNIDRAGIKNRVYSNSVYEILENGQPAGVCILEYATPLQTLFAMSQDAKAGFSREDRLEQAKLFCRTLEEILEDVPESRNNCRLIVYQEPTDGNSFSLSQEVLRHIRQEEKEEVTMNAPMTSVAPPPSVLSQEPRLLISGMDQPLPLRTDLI

Structure (SMILES): Nc1nc2c(ncn2[C@@H]2O[C@@H]3COP(=O)(O)O[C@H]4[C@@H](O)[C@H](n5cnc6c(=O)[nH]c(N)nc65)O[C@@H]4COP(=O)(O)O[C@H]3[C@H]2O)c(=O)[nH]1 [cyclic-di-GMP, cyclic diguanylate monophosphate]
- activation of innate immunity (IFN-α levels) (primary human PBMCs): activates innate immunity
- binding to STING (STING): binds directly
